In PubChem BioAssay AID248 (DTP/NCI, 2004):
“And” between values parts separate entries of the source, which are not always exact repeats. Identical values can stand only once. Inconclusive results and toxic doses are left out. Cut-off read from the data, not from the text of the source: active = T/C of 150% or more; inactive = T/C below 125%.

System: L1210 leukemia ip in BDF1 mice, survival T/C
Experiment: NCI In Vivo Anticancer Drug Screen. Data for tumor model L1210 Leukemia (intraperitoneal) in B6D2F1 (BDF1) mice
Settings: endpoint: mean survival time, higher = longer survival
Method in brief: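 Antitumor effect is assessed in tumor-bearing animals. Survival in the compound arm is compared with a vehicle-dosed control arm and expressed as their quotient.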

[1] = dose: 100.0 mg/kg/injection, schedule: Q01DX001 (ip), vehicle: carboxymethylcellulose (CMC)
[2] = dose: 200.0 mg/kg/injection, schedule: Q01DX001 (ip), vehicle: carboxymethylcellulose (CMC)
[3] = dose: 400.0 mg/kg/injection, schedule: Q01DX001 (ip), vehicle: carboxymethylcellulose (CMC)
[4] = dose: 50.0 mg/kg/injection, schedule: Q04DX002 (ip), vehicle: saline with Tween-80
[5] = dose: 100.0 mg/kg/injection, schedule: Q04DX002 (ip), vehicle: saline with Tween-80
[6] = dose: 100.0 mg/kg/injection, schedule: Q04DX003 (ip), vehicle: saline with Tween-80
[7] = dose: 100.0 mg/kg/injection, schedule: Q04DX003 (ip), vehicle: saline
[8] = dose: 200.0 mg/kg/injection, schedule: Q04DX003 (ip), vehicle: saline
[9] = dose: 400.0 mg/kg/injection, schedule: Q04DX003 (ip), vehicle: saline
[10] = dose: 50.0 mg/kg/injection, schedule: Q01DX001 (ip), vehicle: saline
[11] = dose: 100.0 mg/kg/injection, schedule: Q01DX001 (ip), vehicle: saline
[12] = dose: 200.0 mg/kg/injection, schedule: Q01DX001 (ip), vehicle: saline
[13] = dose: 400.0 mg/kg/injection, schedule: Q01DX001 (ip), vehicle: saline
[14] = dose: 25.0 mg/kg/injection, schedule: Q04DX003 (ip), vehicle: saline with Tween-80
[15] = dose: 50.0 mg/kg/injection, schedule: Q04DX003 (ip), vehicle: saline with Tween-80
[16] = dose: 100.0 mg/kg/injection, schedule: Q04DX002 (ip), vehicle: saline
[17] = dose: 200.0 mg/kg/injection, schedule: Q04DX002 (ip), vehicle: saline
[18] = dose: 25.0 mg/kg/injection, schedule: Q01DX009 (ip), vehicle: saline with Tween-80
[19] = dose: 50.0 mg/kg/injection, schedule: Q01DX009 (ip), vehicle: saline with Tween-80

Measured: T/C

O=C(Nc1ccccc1)c1ccc(C(=O)Nc2ccccc2)cc1
inactive: [1] 86 % of control | dose: 100.0 mg/kg/injection, schedule: Q01DX001 (oral), vehicle: carboxymethylcellulose (CMC) 108 % of control | dose: 100.0 mg/kg/injection, schedule: Q01DX009 (ip), vehicle: carboxymethylcellulose (CMC) 101 % of control | dose: 100.0 mg/kg/injection, schedule: Q01DX009 (oral), vehicle: carboxymethylcellulose (CMC) 103 % of control | [2] 87 % of control | dose: 200.0 mg/kg/injection, schedule: Q01DX001 (oral), vehicle: carboxymethylcellulose (CMC) 108 % of control | dose: 200.0 mg/kg/injection, schedule: Q01DX009 (ip), vehicle: carboxymethylcellulose (CMC) 100 % of control | dose: 200.0 mg/kg/injection, schedule: Q01DX009 (oral), vehicle: carboxymethylcellulose (CMC) 105 % of control | [3] 87 % of control | dose: 400.0 mg/kg/injection, schedule: Q01DX001 (oral), vehicle: carboxymethylcellulose (CMC) 104 % of control | dose: 400.0 mg/kg/injection, schedule: Q01DX009 (ip), vehicle: carboxymethylcellulose (CMC) 95 % of control | dose: 400.0 mg/kg/injection, schedule: Q01DX009 (oral), vehicle: carboxymethylcellulose (CMC) 111 % of control | dose: 800.0 mg/kg/injection, schedule: Q01DX001 (ip), vehicle: carboxymethylcellulose (CMC) 92 % of control | dose: 800.0 mg/kg/injection, schedule: Q01DX001 (oral), vehicle: carboxymethylcellulose (CMC) 106 % of control | dose: 800.0 mg/kg/injection, schedule: Q01DX009 (ip), vehicle: carboxymethylcellulose (CMC) 97 % of control

CCCc1ccc(OCC=C(C)C)cc1
inactive: [4] 100 % of control | [5] 100 % of control

N#Cc1ccc(C#N)c2ccccc12
inactive: [6] 96 % of control | dose: 200.0 mg/kg/injection, schedule: Q04DX003 (ip), vehicle: saline with Tween-80 98 % of control | dose: 400.0 mg/kg/injection, schedule: Q04DX003 (ip), vehicle: saline with Tween-80 96 % of control

N=C(N)c1ccncc1
inactive: [7] 104 % of control | [8] 104 % of control | [9] 107 % of control

O=CNn1cn[nH]c1=S
inactive: [1] 95 % of control | [2] 98 % of control | [3] 95 % of control

CNC(=O)N(CCC#N)C1CCCCC1
inactive: dose: 100.0 mg/kg/injection, schedule: Q04DX003 (ip), vehicle: other 104 % of control | dose: 200.0 mg/kg/injection, schedule: Q04DX003 (ip), vehicle: other 106 % of control | dose: 400.0 mg/kg/injection, schedule: Q04DX003 (ip), vehicle: other 96 % of control

NCCNCCN
inactive: [10] 102 % of control | [11] 116 % of control | [12] 104 % of control | [13] 108 % of control

CC(C)=CCCC(C)CCO (centres undefined)
inactive: [11] 94 % of control | [12] 100 % of control

CCCSCCSCCC
inactive: [14] 104 % of control | [15] 102 % of control | [6] 104 % of control and 90 % of control

O=C(CCl)Nc1ccc([N+](=O)[O-])cc1
inactive: dose: 25.0 mg/kg/injection, schedule: Q04DX002 (ip), vehicle: saline with Tween-80 103 % of control | [4] 93 % of control | [5] 97 % of control

Cc1c(C(=O)/C=C/c2ccccc2)cc([N+](=O)[O-])cc1[N+](=O)[O-]
inactive: [10] 92 % of control | [11] 98 % of control | [12] 100 % of control | [13] 93 % of control

COc1ccc(OC)c(NC(=S)Nc2ccccc2)c1
inactive: dose: 100.0 mg/kg/injection, schedule: Q01DX009 (ip), vehicle: Klucel (hydroxypropylcellulose) (HPC) 98 % of control | dose: 200.0 mg/kg/injection, schedule: Q01DX009 (ip), vehicle: Klucel (hydroxypropylcellulose) (HPC) 97 % of control | dose: 400.0 mg/kg/injection, schedule: Q01DX009 (ip), vehicle: Klucel (hydroxypropylcellulose) (HPC) 92 % of control

CC(=O)ONc1nc(C)c(CCC2OCCO2)c(SC(=N)N)n1
inactive: dose: 100.0 mg/kg/injection, schedule: Q01DX009 (ip), vehicle: saline 109 % of control | [7] 110 % of control | dose: 200.0 mg/kg/injection, schedule: Q01DX009 (ip), vehicle: saline 113 % of control | [8] 105 % of control | dose: 400.0 mg/kg/injection, schedule: Q01DX009 (ip), vehicle: saline 93 % of control | [9] 100 % of control

O=C1OC(C(O)C(O)C(O)CO)C(O)C1O (centres undefined)
inactive: [16] 96 % of control | [17] 96 % of control | dose: 400.0 mg/kg/injection, schedule: Q04DX002 (ip), vehicle: saline 108 % of control

N=C(N)c1cccc(NC(=O)c2ccc(C(=O)Nc3cccc(C(=N)N)c3)c([N+](=O)[O-])c2)c1
inactive: dose: 1.0 mg/kg/injection, schedule: Q01DX015 (ip), vehicle: water 96 % of control | dose: 2.0 mg/kg/injection, schedule: Q01DX015 (ip), vehicle: water 96 % of control | dose: 4.0 mg/kg/injection, schedule: Q01DX015 (ip), vehicle: water 102 % of control | dose: 8.0 mg/kg/injection, schedule: Q01DX015 (ip), vehicle: water 102 % of control and 109 % of control | dose: 16.0 mg/kg/injection, schedule: Q01DX015 (ip), vehicle: water 115 % of control

CCN(CC)CCCCN(C)c1ccccc1
inactive: dose: 12.5 mg/kg/injection, schedule: Q01DX009 (ip), vehicle: saline with Tween-80 89 % of control | dose: 12.5 mg/kg/injection, schedule: Q04DX003 (ip), vehicle: acetone 93 % of control | [18] 97 % of control | dose: 25.0 mg/kg/injection, schedule: Q04DX003 (ip), vehicle: acetone 89 % of control | [19] 97 % of control | dose: 50.0 mg/kg/injection, schedule: Q04DX003 (ip), vehicle: acetone 98 % of control

CP1(=O)CCC=C1C(=O)O (centres undefined)
inactive: [11] 95 % of control | [12] 95 % of control | [13] 95 % of control

O=c1sc2ccccc2n1-c1ccccc1
inactive: dose: 100.0 mg/kg/injection, schedule: Q04DX003 (ip), vehicle: Klucel (hydroxypropylcellulose) (HPC) 96 % of control | dose: 200.0 mg/kg/injection, schedule: Q04DX003 (ip), vehicle: Klucel (hydroxypropylcellulose) (HPC) 93 % of control

CCCCCC(=O)Oc1c(C(C)(C)C)cc([N+](=O)[O-])c(C)c1[N+](=O)[O-]
inactive: [16] 93 % of control | [17] 93 % of control

CC1CCC(=C(c2ccccc2)c2ccccc2)C(C)N1C (centres undefined)
inactive: [18] 98 % of control | [14] 107 % of control | [19] 98 % of control | [15] 96 % of control | dose: 100.0 mg/kg/injection, schedule: Q01DX009 (ip), vehicle: saline with Tween-80 90 % of control | [6] 98 % of control and 101 % of control

COc1cc(OC)c(NC(=O)C(Cl)(Cl)Cl)cc1Cl
inactive: dose: 100.0 mg/kg/injection, schedule: Q04DX002 (ip), vehicle: Klucel (hydroxypropylcellulose) (HPC) 98 % of control | dose: 200.0 mg/kg/injection, schedule: Q04DX002 (ip), vehicle: Klucel (hydroxypropylcellulose) (HPC) 95 % of control | dose: 400.0 mg/kg/injection, schedule: Q04DX002 (ip), vehicle: Klucel (hydroxypropylcellulose) (HPC) 95 % of control

NC(CC[Se]CC(N)C(=O)O)C(=O)O (centres undefined)
inactive: dose: 0.5 mg/kg/injection, schedule: Q01DX009 (ip), vehicle: acetone 110 % of control | dose: 1.0 mg/kg/injection, schedule: Q01DX009 (ip), vehicle: acetone 103 % of control | dose: 2.0 mg/kg/injection, schedule: Q01DX009 (ip), vehicle: acetone 95 % of control | dose: 4.0 mg/kg/injection, schedule: Q01DX009 (ip), vehicle: acetone 108 % of control

c1ccc([P+](CC2CCCO2)(c2ccccc2)c2ccccc2)cc1 (centres undefined)
inactive: [11] 113 % of control

O=C(O)C(F)(F)C(F)(F)C(F)(F)F.[Ag]
inactive: dose: 10.0 mg/kg/injection, schedule: Q01DX001 (ip), vehicle: acetone 101 % of control | dose: 20.0 mg/kg/injection, schedule: Q01DX001 (ip), vehicle: acetone 96 % of control | dose: 40.0 mg/kg/injection, schedule: Q01DX001 (ip), vehicle: acetone 109 % of control

OCCCN1CCN(CCCC2c3ccccc3Sc3ccc(Cl)cc32)CC1 (centres undefined)
inactive: dose: 25.0 mg/kg/injection, schedule: Q04DX003 (ip), vehicle: saline 102 % of control | dose: 50.0 mg/kg/injection, schedule: Q04DX003 (ip), vehicle: saline 109 % of control
